Measurements as given in patent US6503885B1, “Carboxymethylgalactose derivatives” (Otsuka Pharmaceutical Co., Ltd., priority 1998, dated 2003).

Tests used:
Assay type in all cases: cell-based
P-selectin-IgG = assay: Binding inhibitory activity test: HL-60 cell binding to immobilized P-selectin-IgG; conditions: 0.3 mM test compound; HL-60 cells; 20 ng P-selectin-IgG per well; average of 5 wells ± SE
E-selectin-IgG = assay: Binding inhibitory activity test: HL-60 cell binding to immobilized E-selectin-IgG; conditions: 0.3 mM test compound; HL-60 cells; 40 ng E-selectin-IgG; average of 5 wells ± SE
Description: [The source words this procedure for another target and says it was used here with some conditions changed.] (§1) The binding inhibitory activity of the test compound was measured in terms of the inhibition of binding of premyelocytic leukemia HL-60 cells to immobilized recombinant selectin-IgG fusion proteins by addition of the test compound to the binding reaction system, in accordance with the method described in the above-identified reference.
(§2) Stated more specifically, 20 ng of purified P-selectin-IgG was added to each well of a microtiter plate (96 wells, Nunc Maxisorp) and immobilized. Phosphate buffered saline (PBS) was added to each well to make a total volume of 100 μl and the plate was allowed to stand at 4° C. overnight. The excess solution was removed by aspiration, and non-specific binding sites were blocked with PBS containing 1% bovine serum albumin (BSA) at room temperature for 1 hour. After removal of the blocking solution by aspiration, 0.3 mM of the test compound as dissolved in 100 μl of a binding buffer (RPMI1640), and 10^6 cells/ml of HL-60 cells as suspended in 100 μl of the binding buffer were added to each well. The plate was centrifuged at 500 rotations per minute for 2 minutes at room temperature, and each well was filled with the binding buffer. The plate was carefully sealed with an adhesive tape so as to avoid trapping any air bubbles. The plate was turned upside down and centrifuged at 500 rotations per minute for 10 minutes to remove unbound HL-60 cells. The adhesive tape was peeled off and the buffer was removed by aspiration. The number of cells bound/well was determined using a cell counting kit (WST-1 assay kit, product of Dojin Kagaku K.K.) (M. Ishiyama. M. Shiga, M. Mizoguchi and P. He, Chem. Pharm. Bull., 41, 1118-1122 (1994)).
(§3) The binding inhibition (%) was calculated from the number (M) of bound cells achieved in the test using the test compound and the number (N) of bound cells achieved in the comparative test not using the test compound, according to the following equation:
(§4) Binding inhibition (%)=100×(N−M)/N […]
(§5) The data were expressed as an average value of 5 wells±standard error (SE).

L-selectin-IgG = assay: Binding inhibitory activity test: HL-60 cell binding to immobilized L-selectin-IgG; conditions: 0.3 mM test compound; HL-60 cells; 100 ng L-selectin-IgG; average of 5 wells ± SE
Description: [The source words this procedure for another target and says it was used here with some conditions changed.] as §1, §2, §3, §4, §5

Compound	Binding inhibition (%) P-selectin (P-selectin-IgG) [%]	Binding inhibition (%) E-selectin (E-selectin-IgG) [%]	Binding inhibition (%) L-selectin (L-selectin-IgG) [%]
CCCCCCCCCCCCCCC(CCCCCCCCCCCCCC)CO[C@@H]1O[C@H](CO)[C@H](O)[C@H](CC(=O)O)[C@H]1O [Compound of the invention, 2-(tetradecyl)hexadecyl 3-deoxy-3-C-(carboxymethyl)-β-D-glactopyranoside]	79 ± 3	12 ± 8	92 ± 3
sialyl Lewis-x [SLe^x]	3 ± 6	0 ± 4	0 ± 5
CCCCCCCCCCCCCCC(CCCCCCCCCCCCCC)CO[C@@H]1O[C@H](CO)[C@H](O)[C@H](OS(=O)(=O)O)[C@H]1O [Comparative compound, 2-(tetradecyl)hexadecyl 3-O-sulfo-β-D-galactopyranoside]	6 ± 3	0 ± 5	13 ± 3
